# Results from BindingDB's records for doi:10.1016/j.bmcl.2019.05.029 (Novira Therapeutics, 2019).
# Assay: Binding affinity to capsid protein in Hepatitis B virus infected in human HepG2.2.15 cells assessed as inhibition of HBV DNA replication incubated for 3 days followed by replacement of fresh medium containing compound and measured after 3 days by chemiluminescent assay
row,SMILES,EC50
1,CC1(O)COCCN(S(=O)(=O)c2cc(C(=O)Nc3ccc(F)c(Cl)c3)ccc2F)C1 (centres undefined),100 nM
2,CC(O)C1CCCCN(S(=O)(=O)c2cc(C(=O)Nc3ccc(F)c(Cl)c3)ccc2F)C1 (centres undefined),140 nM
3,COC1COCCN(S(=O)(=O)c2cc(C(=O)Nc3ccc(F)c(Cl)c3)ccc2F)C1 (centres undefined),130 nM
4,O=C(Nc1ccc(F)c(Cl)c1)c1ccc(F)c(S(=O)(=O)N2CCOC[C@@H](O)C2)c1,140 nM
5,CC1(O)CCCN(S(=O)(=O)c2cc(C(=O)Nc3ccc(F)c(Cl)c3)ccc2F)CC1 (centres undefined),110 nM
6,O=C(Nc1ccc(F)c(Cl)c1)c1ccc(F)c(S(=O)(=O)N2CCCCCC(O)C2)c1 (centres undefined),60 nM
7,CN1CCCN(S(=O)(=O)c2cc(C(=O)Nc3ccc(F)c(Cl)c3)ccc2F)CC1=O,220 nM
8,O=C(Nc1ccc(F)c(Cl)c1)c1ccc(F)c(S(=O)(=O)N2CCCC(O)CC2)c1 (centres undefined),140 nM
9,CC1(O)CCCCN(S(=O)(=O)c2cc(C(=O)Nc3ccc(F)c(Cl)c3)ccc2F)C1 (centres undefined),120 nM
10,O=C(Nc1ccc(F)c(Cl)c1)c1ccc(F)c(S(=O)(=O)N2CCSCC(O)C2)c1 (centres undefined),170 nM
11,O=C(Nc1ccc(F)c(Cl)c1)c1ccc(F)c(S(=O)(=O)N2CCOC[C@H](O)C2)c1,63 nM
12,CN1CCN(S(=O)(=O)c2cc(C(=O)Nc3ccc(F)c(Cl)c3)ccc2F)CC(O)C1 (centres undefined),470 nM
13,O=C(Nc1ccc(F)c(Cl)c1)c1ccc(F)c(S(=O)(=O)N2CCCCC(CO)C2)c1 (centres undefined),140 nM
14,O=C(Nc1ccc(F)c(Cl)c1)c1ccc(F)c(S(=O)(=O)N2CCCCCCC2O)c1 (centres undefined),120 nM
15,O=C(Nc1ccc(F)c(Cl)c1)c1ccc(F)c(S(=O)(=O)N2CCCCC(O)CC2)c1 (centres undefined),52 nM
16,O=C(Nc1ccc(F)c(Cl)c1)c1ccc(F)c(S(=O)(=O)N2CCCCC(O)C2)c1 (centres undefined),170 nM
17,O=C(Nc1ccc(F)c(Cl)c1)c1ccc(F)c(S(=O)(=O)N2CCCCC(F)(F)C2)c1,140 nM
18,O=C(Nc1ccc(F)c(Cl)c1)c1ccc(F)c(S(=O)(=O)N2CCOCC(O)C2)c1 (centres undefined),100 nM
19,O=C(Nc1ccc(F)c(Cl)c1)c1ccc(F)c(S(=O)(=O)N2CCOCC(F)C2)c1 (centres undefined),80 nM
